Common to all, as to type: cell-based
Test [1] has as its system spores of ATCC BBA1870 strain. Description: Inhibition of germination of C. difficile spores (MIC), strain ATCC BBA1870. The conditions noted are these: Clostridioides difficile, ATCCBBA1870STRAIN, 1 h, read-out: MIC (minimum concentration that completely inhibits spore germination). The gist of the method: (§1)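 Spores heat-activated for 30 min at 65° C and washed, then preincubated with compound (10 mM DMSO stock) in BHIS at 37° C. Germination was triggered with sodium taurocholate, and OD580 was read each minute for 60 min. Inhibition = 100% − germination rate, from final vs initial OD relative to germinant-only controls.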

The test system of test [2] is spores of ATCC 43255 strain. Description: Inhibition of germination of C. difficile spores (MIC), strain ATCC 43255. The conditions noted are these: Clostridioides difficile, ATCC43255, 1 h, read-out: MIC (minimum concentration that completely inhibits spore germination). The gist of the method:
as §1

In test [3] the test system is spores of ATCC 630 strain. Description: Inhibition of germination of C. difficile spores (MIC), strain ATCC 630. The following applies: Clostridioides difficile, ATCC630, 1 h, read-out: MIC (minimum concentration that completely inhibits spore germination). The gist of the method: as §1
Setting [4] is: strain 1870, sodium taurocholate as germinant, BHIS medium, 37° C., OD580 for 60 min.
[5] abbreviates: strain 43255, sodium taurocholate as germinant, BHIS medium, 37° C., OD580 for 60 min.
Setting [6] is: strain 630, sodium taurocholate as germinant, BHIS medium, 37° C., OD580 for 60 min.

From patent US20230135729A1, “COMPOUND WITH ANTI-SPORE ACTIVITY AND PHARMACEUTICAL COMPOSITION THEREOF” (priority 2020, published 2023) come the findings set out here.

Structures are written as SMILES. Values after ≈ are worked out from the molar mass of the structure shown. Read-outs that look alike come from different tables or passages of the source.

Take `CCCCCCCC(=O)O[C@@H]1C[C@@H]2CC(=O)CC[C@]2(C)[C@H]2CC[C@]3(C)[C@@H]([C@H](C)CC(=O)N[C@@H](c4ccc(Br)s4)C(C)C)CC[C@H]3[C@H]12` [Compound I-186]: the MIC in test [1] (setting [4]), in test [2] (setting [5]) and in test [3] (setting [6]) was 256 µM (≈ 184 µg/mL) in each case.
As for `CC[C@@H](NC(=O)C[C@@H](C)[C@H]1CC[C@H]2[C@@H]3[C@H](OC(=O)CCCCCCC(=O)O)C[C@@H]4CC(=O)CC[C@]4(C)[C@H]3CC[C@]12C)c1ccc(Cl)s1` [Compound I-187], the MIC in test [1] (setting [4]), in test [2] (setting [5]) and in test [3] (setting [6]) was 0.125 µM (≈ 0.0863 µg/mL) each time.
With `CC[C@@H](NC(=O)C[C@@H](C)[C@H]1CC[C@H]2[C@@H]3[C@H](OC(=O)CCCCCCC(=O)O)C[C@@H]4CC(=O)CC[C@]4(C)[C@H]3CC[C@]12C)c1ccc(Br)s1` [Compound I-188], the MIC in test [1] (setting [4]), in test [2] (setting [5]) and in test [3] (setting [6]) was 0.25 µM (≈ 0.184 µg/mL) each time.
On to `CC(C)[C@@H](NC(=O)C[C@@H](C)[C@H]1CC[C@H]2[C@@H]3[C@H](OC(=O)CCCCCCC(=O)O)C[C@@H]4CC(=O)CC[C@]4(C)[C@H]3CC[C@]12C)c1ccc(Cl)s1` [Compound I-189], for which the values for the MIC in test [1] (setting [4]), in test [2] (setting [5]) and in test [3] (setting [6]) were 0.25 µM (≈ 0.176 µg/mL), 0.25 µM (≈ 0.176 µg/mL) and 0.125 µM (≈ 0.0881 µg/mL), respectively.
Regarding `CC(C)[C@@H](NC(=O)C[C@@H](C)[C@H]1CC[C@H]2[C@@H]3[C@H](OC(=O)CCCCCCC(=O)O)C[C@@H]4CC(=O)CC[C@]4(C)[C@H]3CC[C@]12C)c1ccc(Br)s1` [Compound I-190], the MIC in test [1] (setting [4]), in test [2] (setting [5]) and in test [3] (setting [6]) was 0.25 µM (≈ 0.187 µg/mL) throughout.
Regarding `CC[C@@H](NC(=O)C[C@@H](C)[C@H]1CC[C@H]2[C@@H]3[C@H](OP(=O)(O)O)C[C@@H]4CC(=O)CC[C@]4(C)[C@H]3CC[C@]12C)c1ccc(Cl)s1` [Compound I-191], the MIC in test [1] (setting [4]), in test [2] (setting [5]) and in test [3] (setting [6]) was 64 µM (≈ 39.3 µg/mL) throughout.
Consider `CC[C@@H](NC(=O)C[C@@H](C)[C@H]1CC[C@H]2[C@@H]3[C@H](OP(=O)(O)O)C[C@@H]4CC(=O)CC[C@]4(C)[C@H]3CC[C@]12C)c1ccc(Br)s1` [Compound I-192], for which the MIC in test [1] (setting [4]), in test [2] (setting [5]) and in test [3] (setting [6]) was 64 µM (≈ 42.2 µg/mL) in each case.
As for `CC(C)[C@@H](NC(=O)C[C@@H](C)[C@H]1CC[C@H]2[C@@H]3[C@H](OP(=O)(O)O)C[C@@H]4CC(=O)CC[C@]4(C)[C@H]3CC[C@]12C)c1ccc(Cl)s1` [Compound I-193], the MIC in test [1] (setting [4]), in test [2] (setting [5]) and in test [3] (setting [6]) was 64 µM (≈ 40.2 µg/mL) throughout.
On to `CC(C)[C@@H](NC(=O)C[C@@H](C)[C@H]1CC[C@H]2[C@@H]3[C@H](OP(=O)(O)O)C[C@@H]4CC(=O)CC[C@]4(C)[C@H]3CC[C@]12C)c1ccc(Br)s1` [Compound I-194], for which the MIC in test [1] (setting [4]), in test [2] (setting [5]) and in test [3] (setting [6]) was 64 µM (≈ 43.1 µg/mL) each time.
On to `CC[C@@H](NC(=O)C[C@@H](C)[C@H]1CC[C@H]2[C@@H]3C(=O)C[C@@H]4CC(=O)CC[C@]4(C)[C@H]3CC[C@]12C)c1ccc(C=O)s1` [Compound I-199], for which the MIC in test [1] (setting [4]), in test [2] (setting [5]) and in test [3] (setting [6]) was 16 µM (≈ 8.41 µg/mL) throughout.
On to `CC(C)[C@@H](NC(=O)C[C@@H](C)[C@H]1CC[C@H]2[C@@H]3C(=O)C[C@@H]4CC(=O)CC[C@]4(C)[C@H]3CC[C@]12C)c1ccc(C=O)s1` [Compound I-200], for which the MIC in test [1] (setting [4]) came to 32 µM (≈ 17.3 µg/mL); in test [2] (setting [5]), 32 µM (≈ 17.3 µg/mL); in test [3] (setting [6]) it was 16 µM (≈ 8.64 µg/mL).
For the compound `CC[C@@H](NC(=O)C[C@@H](C)[C@H]1CC[C@H]2[C@@H]3C(=O)C[C@@H]4CC(=O)CC[C@]4(C)[C@H]3CC[C@]12C)c1ccc(C(C)=O)s1` [Compound I-201], the MIC in test [1] (setting [4]), in test [2] (setting [5]) and in test [3] (setting [6]) was 32 µM (≈ 17.3 µg/mL) each time.
In the case of `CC(=O)c1ccc([C@H](NC(=O)C[C@@H](C)[C@H]2CC[C@H]3[C@@H]4C(=O)C[C@@H]5CC(=O)CC[C@]5(C)[C@H]4CC[C@]23C)C(C)C)s1` [Compound I-202], the MIC in test [1] (setting [4]), in test [2] (setting [5]) and in test [3] (setting [6]) was 32 µM (≈ 17.7 µg/mL) each time.
Consider `CC[C@@H](NC(=O)C[C@@H](C)[C@H]1CC[C@H]2[C@@H]3C(=O)C[C@@H]4CC(=O)CC[C@]4(C)[C@H]3CC[C@]12C)c1ccc(N(C)C)s1` [Compound I-203], for which the results for the MIC in test [1], in test [2] and in test [3] were 32 µM (≈ 17.3 µg/mL), 32 µM (≈ 17.3 µg/mL) and 16 µM (≈ 8.65 µg/mL), respectively.
For `CC(C)[C@@H](NC(=O)C[C@@H](C)[C@H]1CC[C@H]2[C@@H]3C(=O)C[C@@H]4CC(=O)CC[C@]4(C)[C@H]3CC[C@]12C)c1ccc(N(C)C)s1` [Compound I-204], the MIC in test [1], in test [2] and in test [3] was 32 µM (≈ 17.8 µg/mL) each time.
On to `CC[C@@H](NC(=O)C[C@@H](C)[C@H]1CC[C@H]2[C@@H]3C(=O)C[C@@H]4CC(=O)CC[C@]4(C)[C@H]3CC[C@]12C)c1ccc(C(=O)CCCCCCC(=O)O)s1` [Compound I-205], for which the MIC in test [1] (setting [4]), in test [2] (setting [5]) and in test [3] (setting [6]) was 128 µM (≈ 83.7 µg/mL) each time.
`CC(C)[C@@H](NC(=O)C[C@@H](C)[C@H]1CC[C@H]2[C@@H]3C(=O)C[C@@H]4CC(=O)CC[C@]4(C)[C@H]3CC[C@]12C)c1ccc(C(=O)CCCCCCC(=O)O)s1` [Compound I-206]: the MIC was 256 µM (≈ 171 µg/mL) in test [1] (setting [4]), 128 µM (≈ 85.5 µg/mL) in test [2] (setting [5]) and 128 µM (≈ 85.5 µg/mL) in test [3] (setting [6]).
In the case of `CC[C@@H](NC(=O)C[C@@H](C)[C@H]1CC[C@H]2[C@@H]3[C@H](OC(C)=O)CC4=CC(=O)CC[C@]4(C)[C@H]3CC[C@]12C)c1ccc(Br)s1` [I-155 -1], the MIC in test [1] (setting [4]), in test [2] (setting [5]) and in test [3] (setting [6]) was 0.25 µM (≈ 0.155 µg/mL) each time.
Regarding `CC(=O)O[C@@H]1CC2=CC(=O)CC[C@]2(C)[C@H]2CC[C@]3(C)[C@@H]([C@H](C)CC(=O)N[C@@H](c4ccc(Br)s4)C(C)C)CC[C@H]3[C@H]12` [I-156 -1], the MIC in test [1] (setting [4]), in test [2] (setting [5]) and in test [3] (setting [6]) was 0.5 µM (≈ 0.316 µg/mL) throughout.
With `CC[C@@H](NC(=O)C[C@@H](C)[C@H]1CC[C@H]2[C@@H]3[C@H](OC(C)=O)CC4=CC(=O)CC[C@]4(C)[C@H]3CC[C@]12C)c1ccc(Cl)s1` [I-157 -1], the MIC in test [1] (setting [4]) amounted to 0.5 µM (≈ 0.287 µg/mL); in test [2] (setting [5]), 0.5 µM (≈ 0.287 µg/mL); in test [3] (setting [6]) it was 0.25 µM (≈ 0.144 µg/mL).
For the compound `CC(=O)O[C@@H]1CC2=CC(=O)CC[C@]2(C)[C@H]2CC[C@]3(C)[C@@H]([C@H](C)CC(=O)N[C@@H](c4ccc(Cl)s4)C(C)C)CC[C@H]3[C@H]12` [I-158 -1], the MIC in test [1] (setting [4]), in test [2] (setting [5]) and in test [3] (setting [6]) was 0.5 µM (≈ 0.294 µg/mL) in each case.
For `CC[C@@H](NC(=O)C[C@@H](C)[C@H]1CC[C@H]2[C@@H]3[C@H](OC(C)=O)CC4=CC(=O)C=C[C@]4(C)[C@H]3CC[C@]12C)c1ccc(Br)s1` [I-159 -1], the MIC in test [1] (setting [4]), in test [2] (setting [5]) and in test [3] (setting [6]) was 0.5 µM (≈ 0.308 µg/mL) each time.
Regarding `CC(=O)O[C@@H]1CC2=CC(=O)C=C[C@]2(C)[C@H]2CC[C@]3(C)[C@@H]([C@H](C)CC(=O)N[C@@H](c4ccc(Br)s4)C(C)C)CC[C@H]3[C@H]12` [I-160 -1], the MIC in test [1] (setting [4]), in test [2] (setting [5]) and in test [3] (setting [6]) was 0.5 µM (≈ 0.315 µg/mL) each time.
For the compound `CC[C@@H](NC(=O)C[C@@H](C)[C@H]1CC[C@H]2[C@@H]3[C@H](OC(C)=O)CC4=CC(=O)C=C[C@]4(C)[C@H]3CC[C@]12C)c1ccc(Cl)s1` [I-161 -1], the results for the MIC in test [1] (setting [4]), in test [2] (setting [5]) and in test [3] (setting [6]) were 0.5 µM (≈ 0.286 µg/mL), 0.5 µM (≈ 0.286 µg/mL) and 0.25 µM (≈ 0.143 µg/mL), respectively.
For the compound `CC(=O)O[C@@H]1CC2=CC(=O)C=C[C@]2(C)[C@H]2CC[C@]3(C)[C@@H]([C@H](C)CC(=O)N[C@@H](c4ccc(Cl)s4)C(C)C)CC[C@H]3[C@H]12` [I-162 -1], the MIC in test [1] (setting [4]) turned out to be 0.25 µM (≈ 0.147 µg/mL); in test [2] (setting [5]) it was 0.5 µM (≈ 0.293 µg/mL); in test [3] (setting [6]) it was 0.5 µM (≈ 0.293 µg/mL).
